Holding throughout (details): treatment: drug alone; 5 days
Test [1] deals with CAKI-1. In words: minimum viability across doses, drug alone, relative to DMSO (fraction); higher = less growth inhibition. As to the method: (§1)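 Primary HTS: 8 RCC cell lines treated with 8 doses (up to 10 uM) of each library drug alone for 5 days; viability read by CellTiter-Glo and normalised to DMSO. GI50 was fitted with XLfit (4-parameter), AUC is the area under the dose-response curve, and minimum viability is the lowest fraction of DMSO viability across doses.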

Test [2] concerns SN12C. The test is described as above. The protocol: as §1
The test system of test [3] is ACHN. The test is described as above. The protocol:
as §1

For test [4], the system named is TK-10. Described as above. As to the method: as §1
For test [5], the system named is 769-P. The description is as above. As to the method:
as §1

Test [6] relates to A498. The description is as above. As to the method: as §1
Test [7] deals with 786-O. The test is described as above. As to the method: as §1
The subject of test [8] is UO-31. The description is as above. As to the method:
as §1

For test [9], the system named is CAKI-1. In words: AUC of dose-response viability curve, drug alone (arbitrary (AUC of normalised viability)); higher = less growth inhibition. As to the method:
as §1

Test [10] deals with SN12C. Described as above. The protocol:
as §1

The subject of test [11] is ACHN. The description is as above. The protocol: as §1
Test [12] concerns TK-10. Described as above. As to the method:
as §1

In test [13] the test system is 769-P. Described as above. As to the method:
as §1

Test [14] has as its system A498. The test is described as above. The protocol:
as §1

In test [15] the test system is 786-O. Described as above. As to the method: as §1
The test system of test [16] is UO-31. The description is as above. The protocol:
as §1

Test [17] relates to CAKI-1. In words: GI50, drug alone; higher = less potent. The protocol:
as §1

For test [18], the system named is SN12C. In words: GI50, drug alone; higher = less potent. The protocol:
as §1

In test [19] the test system is ACHN. In words: GI50, drug alone; higher = less potent. The protocol: as §1
In test [20] the test system is TK-10. In words: GI50, drug alone; higher = less potent. The protocol: as §1
Test [21] deals with 769-P. In words: GI50, drug alone; higher = less potent. The protocol: as §1
For test [22], the system named is A498. In words: GI50, drug alone; higher = less potent. As to the method:
as §1

Test [23] relates to 786-O. In words: GI50, drug alone; higher = less potent. As to the method: as §1
The subject of test [24] is UO-31. In words: GI50, drug alone; higher = less potent. The protocol:
as §1

Molecules are shown by their SMILES.

For the compound `O=c1[nH]c2ccc(Cl)cc2c(N[C@@H]2CN3CCC2CC3)c1-c1nc2ccccc2[nH]1` [CHIR-124], the “minimum viability across doses” value in [1] was determined as 0.0814; in test [2], 0.0133; in [3] it was 0.0184; in test [4], 0.168; in test [5], 0.017; in test [6] it was 0.0252. In addition, the “minimum viability across doses” value in [7] was 0.0053; in test [8], 0.0103. In addition, the “AUC of dose-response viability curve” value in [9] was 1.73; in test [10] it was 2.32; in test [11] it was 1.15; in test [12] it was 1.68; in test [13], 1.61; in [14], 2.43. Also, the “AUC of dose-response viability curve” value in test [15] was determined as 0.832; in [16] it was 1.4. The “GI50, drug alone” value was 165 nM in test [17]; 1190 nM in [18]; 40.3 nM in test [19]; 129 nM in test [20]; 129 nM in test [21]; 498 nM in test [22]. Also, the “GI50, drug alone” value in test [23] came to 36.5 nM; in [24], 83.2 nM.

Consider `C[C@H](NC(=O)/C(C#N)=C/c1cccc(Br)n1)c1ccccc1` [WP1066], for which the “minimum viability across doses” value in [1] stood at 0.371; in [2], 0.581; in [3], 0.13; in test [4], 0.932; in test [5] it was 0.0246; in test [6], 0.986. For the same compound, the “minimum viability across doses” value worked out at 0.015 in [7] and 0.00632 in test [8]. For the same compound, the “AUC of dose-response viability curve” value amounted to 3.38 in [9]; 3.23 in test [10]; 3.23 in [11]; 3.62 in test [12]; 3.44 in test [13]; 4.19 in test [14]. Further, the results for the “AUC of dose-response viability curve” value in test [15] and in test [16] were 3.07 and 4.12, respectively. Moreover, the “GI50, drug alone” value in [17] is 8920 nM; in [18], above 10000 nM; in test [19], 6700 nM; in [20] it was above 10000 nM; in test [21] it was 5250 nM; in [22], above 10000 nM. Moreover, the “GI50, drug alone” value in [23] amounted to 4470 nM; in test [24] it was 7860 nM.

On to `COC(=O)Nc1ccc(-c2nc(N3CCOCC3)c3cnn(C4CCN(C(=O)OC)CC4)c3n2)cc1` [WYE-354], for which the “minimum viability across doses” value stood at 0.127 in [1]; 0.274 in [2]; 0.167 in test [3]; 0.293 in test [4]; 0.165 in test [5]; 0.409 in test [6]. Besides, the “minimum viability across doses” value was found to be 0.346 in test [7] and 0.0127 in test [8]. The “AUC of dose-response viability curve” value in test [9] stood at 2.49; in test [10] it was 2.54; in test [11] it was 2.21; in test [12] it was 2.35; in test [13] it was 2.75; in test [14], 3.73. The “AUC of dose-response viability curve” value in test [15] worked out at 1.9; in test [16], 3.63. For the same compound, the “GI50, drug alone” value in test [17] amounted to 1260 nM; in test [18], 1890 nM; in [19], 611 nM; in test [20] it was 1570 nM; in test [21] it was 2270 nM; in [22], 6590 nM. Also, the “GI50, drug alone” value in test [23] was 476 nM; in test [24], 2570 nM.

Consider `CNC(=O)c1cc(Oc2ccc(NC(=O)Nc3ccc(Cl)c(C(F)(F)F)c3)cc2)ccn1.Cc1ccc(S(=O)(=O)O)cc1` [Sorafenib (Nexavar)], for which the “minimum viability across doses” value in test [1] stood at 0.18; in test [2], 0.154; in test [3] it was 0.0796; in test [4] it was 0.513; in test [5] it was 0.592; in test [6], 0.627. For the same compound, the “minimum viability across doses” value in test [7] came to 0.0994; in test [8], 0.00476. The “AUC of dose-response viability curve” value in test [9] was found to be 3.55; in [10], 2.9; in test [11], 3.46; in [12], 3.25; in [13], 3.31; in [14] it was 3.4. Also, the “AUC of dose-response viability curve” value in [15] was 2.7; in [16] it was 2.44. Also, the “GI50, drug alone” value was 9200 nM in [17]; 5130 nM in test [18]; 8050 nM in [19]; above 10000 nM in test [20]; above 10000 nM in test [21]; above 10000 nM in test [22]. For the same compound, the “GI50, drug alone” value in test [23] worked out at 4870 nM; in [24], 734 nM.

Take `Cc1[nH]c(/C=C2\C(=O)Nc3ccccc32)c(C)c1CCC(=O)O` [TSU-68]: the “minimum viability across doses” value turned out to be 0.903 in [1]; 0.882 in test [2]; 0.752 in [3]; 0.855 in [4]; 0.887 in test [5]; 0.884 in test [6]. Also, the figures for the “minimum viability across doses” value in test [7] and in test [8] were 0.786 and 0.879, respectively. Also, the “AUC of dose-response viability curve” value in test [9] turned out to be 3.34; in test [10] it was 3.41; in test [11], 3.12; in test [12] it was 3.26; in [13], 3.3; in [14], 3.71. The figures for the “AUC of dose-response viability curve” value in test [15] and in [16] were 3.1 and 2.36, respectively. The “GI50, drug alone” value in [17], in [18], in [19], in test [20], in test [21] and in test [22] was above 10000 nM in each case. Also, the “GI50, drug alone” value in test [23] and in test [24] was above 10000 nM each time.

On to `CS(=O)(=O)N1CCN(Cc2cc3nc(-c4cccc5[nH]ncc45)nc(N4CCOCC4)c3s2)CC1` [GDC-0941], for which the “minimum viability across doses” value in test [1] came out at 0.149; in [2] it was 0.323; in test [3] it was 0.264; in test [4] it was 0.207; in [5], 0.221; in test [6] it was 0.397. Besides, the “minimum viability across doses” value in test [7] was determined as 0.254; in test [8], 0.227. In addition, the “AUC of dose-response viability curve” value in [9] amounted to 2.28; in test [10], 2.56; in [11], 2.41; in test [12] it was 2.27; in test [13], 2.65; in test [14], 3.39. Moreover, the “AUC of dose-response viability curve” value came to 2.46 in [15] and 3.82 in [16]. The “GI50, drug alone” value in [17] came to 563 nM; in [18], 1940 nM; in test [19], 690 nM; in [20] it was 660 nM; in test [21], 1540 nM; in test [22] it was 6940 nM. The “GI50, drug alone” value in test [23] came to 1530 nM; in test [24], 2660 nM.

The values above are taken from the supplement of paper PMC8149375.
